Data reported in the supplement of paper PMC8617591.

Tests used:
[1] = tested on: Mycobacterium tuberculosis Erdman (autoluminescent); experiment: GRinf, maximum normalised growth rate inhibition (unitless (-1 to 1)); higher = less effect (negative = killing)
Procedure: (§1)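 DiaMOND dose responses (10 doses, 1.5- or 2-fold spacing, equipotent around IC90) of autoluminescent M. tuberculosis Erdman in 8 in vitro models. Read-out is OD600, or luminescence for the intracellular (J774) and dormancy models, background-subtracted and normalised to untreated wells. A 3-parameter Hill fit gives Einf and AUC25 (area to IC25 normalised by IC25); GRinf comes from a Hill fit of the Hafner normalised growth rate. Biological replicates passing QC are averaged. Single drugs only.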

[2] = tested on: Mycobacterium tuberculosis Erdman (autoluminescent); experiment: AUC25, normalised area under dose response up to IC25 (fraction (0-1)); higher = more potent at low dose
Procedure: as §1

[3] = tested on: Mycobacterium tuberculosis Erdman (autoluminescent); experiment: Einf, fitted maximum growth inhibition (fraction); higher = stronger maximal inhibition
Procedure: as §1

[4] = tested on: Mycobacterium tuberculosis Erdman (autoluminescent); experiment: Einf, fitted maximum growth inhibition of combination (fraction); higher = stronger maximal inhibition
Procedure: (§2)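 DiaMOND equipotent two-drug combination dose responses against autoluminescent M. tuberculosis Erdman in 8 in vitro models. Read-out is OD600, or luminescence for the intracellular and dormancy models, normalised to untreated wells. Hill-fit Einf, AUC25 and GRinf are potency metrics; FIC50 and FIC90 are Loewe-additivity fractional inhibitory concentrations, given as log2 (negative = synergy). Replicates are averaged.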

[5] = tested on: Mycobacterium tuberculosis Erdman (autoluminescent); experiment: AUC25, normalised area under dose response up to IC25 (fraction (0-1)); higher = more potent at low dose; remark: listed apart in the source
Procedure: as §2

[6] = tested on: Mycobacterium tuberculosis Erdman (autoluminescent); experiment: FIC90 (Loewe) at 90% inhibition (log2); higher = more antagonistic
Procedure: as §2

[7] = tested on: Mycobacterium tuberculosis Erdman (autoluminescent); experiment: FIC50 (Loewe) at 50% inhibition (log2); higher = more antagonistic
Procedure: as §2

[8] = tested on: Mycobacterium tuberculosis Erdman (autoluminescent); experiment: GRinf, maximum normalised growth rate inhibition (unitless (-1 to 1)); higher = less effect (negative = killing); remark: listed apart in the source
Procedure: as §2

NC(=O)c1cnccn1 [pyrazinamide]
Details	AUC25, [2]	Einf, [3]	GRinf, [1]
in vitro model: acidic pH 5.7, time point: constant (~7 days, model-specific)	0.12	0.74	-0.0384
in vitro model: acidic pH 5.7, time point: terminal (~4-5 doublings, model-specific)	0.124	0.881	0.0463
in vitro model: intracellular J774, time point: constant = terminal	–	0.977	-0.393

Details	AUC25, [2]	Einf, [3]	GRinf, [1]
in vitro model: butyrate, time point: constant (~7 days, model-specific)	0.135	0.921	-1
in vitro model: butyrate, time point: terminal (~4-5 doublings, model-specific)	0.098	0.954	-1
in vitro model: cholesterol 0.05 mM, time point: constant (~7 days, model-specific)	0.154	0.394	0.111
in vitro model: cholesterol 0.05 mM, time point: terminal (~4-5 doublings, model-specific)	0.142	0.803	0.0744
in vitro model: cholesterol-high 0.2 mM, time point: constant (~7 days, model-specific)	0.0952	0.765	-0.0736
in vitro model: cholesterol-high 0.2 mM, time point: terminal (~4-5 doublings, model-specific)	0.0753	0.959	-0.64
in vitro model: dormancy (butyrate + nitrate, low O2), time point: constant (~7 days, model-specific)	0.0813	0.939	-0.934
in vitro model: standard 7H9 glycerol, time point: constant = terminal	0.104	0.291	0.582
in vitro model: valerate, time point: constant (~7 days, model-specific)	0.0917	0.8	-0.597
in vitro model: valerate, time point: terminal (~4-5 doublings, model-specific)	0.0645	0.916	-0.749

NC(=O)c1cnccn1 [pyrazinamide] + CO[C@H]1/C=C/O[C@@]2(C)Oc3c(C)c(O)c4c(O)c(c(/C=N/N5CCN(C6CCCC6)CC5)c(O)c4c3C2=O)NC(=O)/C(C)=C\C=C\[C@H](C)[C@H](O)[C@@H](C)[C@@H](O)[C@@H](C)[C@H](OC(C)=O)[C@@H]1C [rifapentine]
Details	AUC25, [5]	Einf, [4]	FIC50, [7]	FIC90, [6]	GRinf, [8]
in vitro model: acidic pH 5.7, time point: constant (~7 days, model-specific)	0.0839	0.93	-0.598	–	-0.369
in vitro model: acidic pH 5.7, time point: terminal (~4-5 doublings, model-specific)	0.0754	0.997	-0.129	-1.04	-0.31
in vitro model: intracellular J774, time point: constant = terminal	–	0.964	–	-0.235	-0.243

Details	AUC25, [5]	Einf, [4]	FIC50, [7]	FIC90, [6]	GRinf, [8]
in vitro model: butyrate, time point: constant (~7 days, model-specific)	0.109	0.875	0.371	1.25	0.119
in vitro model: butyrate, time point: terminal (~4-5 doublings, model-specific)	0.0943	0.941	0.431	1	0.108
in vitro model: cholesterol 0.05 mM, time point: constant (~7 days, model-specific)	0.127	0.63	–	–	0.0214
in vitro model: cholesterol 0.05 mM, time point: terminal (~4-5 doublings, model-specific)	0.105	0.896	0.52	–	-0.284
in vitro model: cholesterol-high 0.2 mM, time point: constant (~7 days, model-specific)	0.0949	0.922	0.664	–	-0.246
in vitro model: cholesterol-high 0.2 mM, time point: terminal (~4-5 doublings, model-specific)	0.0793	1	1.19	0.905	-0.711
in vitro model: dormancy (butyrate + nitrate, low O2), time point: constant (~7 days, model-specific)	0.0917	0.902	-0.609	1.09	0.258
in vitro model: dormancy (butyrate + nitrate, low O2), time point: terminal (~4-5 doublings, model-specific)	0.0455	0.982	-0.14	-0.0574	-0.142
in vitro model: standard 7H9 glycerol, time point: constant = terminal	0.0487	0.866	-0.0174	–	0.219
in vitro model: valerate, time point: constant (~7 days, model-specific)	0.0445	0.684	0.675	–	0.299
in vitro model: valerate, time point: terminal (~4-5 doublings, model-specific)	0.0349	0.892	0.752	0.534	0.155

NC(=O)c1cnccn1 [pyrazinamide] + CO[C@H]1/C=C/O[C@@]2(C)Oc3c(C)c(O)c4c(O)c(c(/C=N/N5CCN(C)CC5)c(O)c4c3C2=O)NC(=O)/C(C)=C\C=C\[C@H](C)[C@H](O)[C@@H](C)[C@@H](O)[C@@H](C)[C@H](OC(C)=O)[C@@H]1C [rifampicin]
Details	AUC25, [5]	Einf, [4]	FIC50, [7]	FIC90, [6]	GRinf, [8]
in vitro model: acidic pH 5.7, time point: constant (~7 days, model-specific)	0.0773	0.932	-0.484	–	-0.451
in vitro model: acidic pH 5.7, time point: terminal (~4-5 doublings, model-specific)	0.0598	0.992	-0.21	-1.3	-0.278
in vitro model: intracellular J774, time point: constant = terminal	–	0.989	–	-0.135	-0.472

Details	AUC25, [5]	Einf, [4]	FIC50, [7]	FIC90, [6]	GRinf, [8]
in vitro model: butyrate, time point: constant (~7 days, model-specific)	0.121	0.839	0.347	–	0.188
in vitro model: butyrate, time point: terminal (~4-5 doublings, model-specific)	0.118	0.915	0.398	2.41	0.216
in vitro model: cholesterol 0.05 mM, time point: constant (~7 days, model-specific)	0.128	0.607	–	–	0.0467
in vitro model: cholesterol 0.05 mM, time point: terminal (~4-5 doublings, model-specific)	0.101	0.887	0.59	–	-0.0969
in vitro model: cholesterol-high 0.2 mM, time point: constant (~7 days, model-specific)	0.0909	0.91	1.2	–	-0.177
in vitro model: cholesterol-high 0.2 mM, time point: terminal (~4-5 doublings, model-specific)	0.095	1	1.54	1.5	-0.819
in vitro model: dormancy (butyrate + nitrate, low O2), time point: constant (~7 days, model-specific)	0.105	0.9	-0.268	0.25	0.249
in vitro model: dormancy (butyrate + nitrate, low O2), time point: terminal (~4-5 doublings, model-specific)	0.0706	0.983	-0.19	0.408	-0.179
in vitro model: standard 7H9 glycerol, time point: constant = terminal	0.0562	0.896	-0.199	–	0.144
in vitro model: valerate, time point: constant (~7 days, model-specific)	0.054	0.761	0.449	–	0.201
in vitro model: valerate, time point: terminal (~4-5 doublings, model-specific)	0.0277	0.903	0.477	0.361	0.149
